Data on eight compounds can be found in PubChem BioAssay (NCI).

Where “and” joins values, the source holds several entries; their conditions need not be identical. Equal entries are not always repeated.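 Each compound was tested at five concentrations against cells in 96-well plates for 48 hours. The concentration for 50% growth inhibition is given as GI50. TGI marks complete inhibition of growth.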

Some test systems named below: KM12 colon; NCI-H522 lung; MDA-MB-435; U251 CNS; OVCAR-5 ovarian; OVCAR-4 ovarian; UO-31 renal; LOX IMVI melanoma; ACHN renal; HT29 colon.
Assay in all cases: NCI anticancer screen, dose series, 48 h

Consider `Clc1ccc(Cl)c(N/N=C\c2c[nH]c3ccccc23)c1`, for which the GI50 in the test with KM12 colon was 7.45 µM; in the test on NCI-H522 lung, 1.78 µM; in the test with MDA-MB-435, 12.2 µM; with U251 CNS it was 22 µM; in the test on OVCAR-5 ovarian, 17.3 µM; in the test with OVCAR-4 ovarian it was 10.7 µM. Moreover, the GI50 is 3.7 µM in the test on UO-31 renal, 4.21 µM in the test on LOX IMVI melanoma and 12 µM in the test with ACHN renal. In addition, the TGI with KM12 colon was 26.3 µM; with NCI-H522 lung, 14.8 µM; in the test on MDA-MB-435, 28.1 µM; in the test on U251 CNS it was above 100 µM; with OVCAR-5 ovarian, 36.9 µM; with OVCAR-4 ovarian, 23 µM. In addition, the TGI in the test on UO-31 renal turned out to be 18.4 µM; in the test with LOX IMVI melanoma it was 74.7 µM; in the test on ACHN renal it was 32.6 µM.
On to `CCCCc1ccc2nc(NC(=O)OC)[nH]c2c1`, for which the GI50 with HT29 colon was 0.0377 µM; in the test on KM12 colon it was 0.0337 µM; in the test with NCI-H522 lung it was 0.0612 µM; with MDA-MB-435, 0.0148 µM; with U251 CNS, 0.0533 µM; with OVCAR-5 ovarian, 1.4 µM. Moreover, the GI50 in the test on OVCAR-4 ovarian was 1.7 µM; in the test with UO-31 renal, 12.1 µM; with LOX IMVI melanoma it was 0.0789 µM; in the test with ACHN renal, 0.077 µM. For the same compound, the TGI is 1.3 µM in the test on KM12 colon; above 68.3 µM with NCI-H522 lung; 0.0379 µM with MDA-MB-435; 19.4 µM with U251 CNS; above 100 µM in the test with OVCAR-5 ovarian; above 69.2 µM in the test with OVCAR-4 ovarian. Further, the values for the TGI with UO-31 renal, with LOX IMVI melanoma and in the test on ACHN renal were above 100 µM, above 55.9 µM and above 64.4 µM, respectively.
`COc1ccc(CN2CCc3c(Cl)nc(N)nc3C2=O)c(OC)c1`: the GI50 was 15.2 µM in the test with HT29 colon; 14.4 µM with KM12 colon; 12.7 µM in the test with NCI-H522 lung; 16.4 µM with MDA-MB-435; 14.6 µM with U251 CNS; 21.1 µM with OVCAR-5 ovarian. The GI50 with OVCAR-4 ovarian is 12.6 µM; in the test with UO-31 renal it was 14 µM; in the test on LOX IMVI melanoma, 13.2 µM; with ACHN renal it was 20.4 µM. Besides, the TGI with HT29 colon came to 29.1 µM; in the test with KM12 colon it was 28.4 µM; with NCI-H522 lung it was 30.9 µM; in the test on MDA-MB-435, 39.5 µM; with U251 CNS, 27.9 µM; in the test on OVCAR-5 ovarian it was 46.7 µM. In addition, the TGI in the test on OVCAR-4 ovarian is 25.6 µM; in the test on UO-31 renal, 43.8 µM; in the test on LOX IMVI melanoma, 26.7 µM; with ACHN renal, 48.5 µM.
Take `O=c1c(Cl)nsnc1Cl`: the TGI in the test with HT29 colon was 60.2 µM; with KM12 colon, above 57.8 µM; with NCI-H522 lung, 3.81 µM; in the test on MDA-MB-435 it was 28.1 µM; in the test with U251 CNS, 35.9 µM; in the test on OVCAR-5 ovarian it was 38.6 µM. For the same compound, the TGI with OVCAR-4 ovarian was 49.4 µM; in the test with UO-31 renal it was 74.5 µM; with LOX IMVI melanoma, 27.2 µM; in the test on ACHN renal it was 14.7 µM.
On to `FC(F)(F)c1ccc2nc(-c3nc(-c4ccccc4)n4ccccc34)[nH]c2c1`, for which the GI50 in the test on HT29 colon was 3.47 µM; in the test with KM12 colon, 5.11 µM; in the test on NCI-H522 lung it was 2.99 µM; with MDA-MB-435, 5.47 µM; in the test on U251 CNS, 1.98 µM; with OVCAR-5 ovarian it was 6.77 µM. In addition, the GI50 in the test with OVCAR-4 ovarian is 1.81 µM; in the test on UO-31 renal it was 4.37 µM; with ACHN renal, 2.23 µM. The TGI in the test with HT29 colon was 11.1 µM; with KM12 colon, above 100 µM; in the test with NCI-H522 lung it was 9.88 µM; in the test with MDA-MB-435, 31.6 µM; with U251 CNS, 4.03 µM; in the test with OVCAR-5 ovarian it was 47.2 µM. Also, the TGI turned out to be 3.71 µM in the test with OVCAR-4 ovarian, 18.6 µM in the test on UO-31 renal and 6.12 µM in the test with ACHN renal.
`O=C(Nc1ccc(Cl)c(Cl)c1)Nc1ccc(Cl)c([N+](=O)[O-])c1`: the GI50 is 1.24 µM with HT29 colon; 1.07 µM with KM12 colon; 0.996 µM with NCI-H522 lung; 1.16 µM in the test with MDA-MB-435; 1.13 µM with U251 CNS; 2.79 µM in the test with OVCAR-5 ovarian. In addition, the GI50 is 0.768 µM in the test on OVCAR-4 ovarian, 0.83 µM in the test with UO-31 renal, 1.03 µM in the test on LOX IMVI melanoma and 0.8 µM in the test on ACHN renal. Besides, the TGI in the test on HT29 colon came to 4.82 µM; in the test on KM12 colon, 4.38 µM; with NCI-H522 lung, 4.9 µM; with MDA-MB-435, 4.9 µM; in the test with U251 CNS, 4.3 µM; with OVCAR-5 ovarian, 9.29 µM. Further, the TGI with OVCAR-4 ovarian was found to be 8.01 µM; in the test on UO-31 renal, 2.92 µM; in the test on LOX IMVI melanoma it was 3.81 µM; in the test on ACHN renal, 3.06 µM.
As for `Cc1cc(O)c2c(c1)C[C@@H](O)C1=C2C(=O)c2c(O)ccc(OC3CC(O)C(OC4CC(OC5CCC(OC6CC(O)C(OC7CC(OC8CCC(O)C(C)O8)C(O)C(C)O7)C(C)O6)C(C)O5)C(O)C(C)O4)C(C)O3)c2C1=O` (stereo not given in full), the GI50 with HT29 colon is 0.847 µM; in the test with KM12 colon it was 1.78 µM and 1.11 µM; in the test with NCI-H522 lung, 0.0888 µM and 0.176 µM; in the test on MDA-MB-435, 0.198 µM and 0.204 µM; with U251 CNS, 0.469 µM and 0.306 µM; in the test with OVCAR-5 ovarian, 1.88 µM and 0.666 µM. Moreover, the GI50 was 0.326 µM in the test with OVCAR-4 ovarian; 1.39 µM and 1.3 µM in the test on UO-31 renal; 0.295 µM and 0.23 µM in the test on LOX IMVI melanoma; 1.52 µM and 0.726 µM with ACHN renal. The TGI is 0.318 µM and 2.3 µM in the test with HT29 colon; 0.0534 µM and 0.217 µM and 0.415 µM with NCI-H522 lung; 0.182 µM and 0.344 µM and 0.376 µM in the test on MDA-MB-435.
With `Cc1cc2c(-c3nc4ccccc4[nH]3)c(O)c(O)cc2c(O)c1-c1c(C)cc2c(-c3nc4ccccc4[nH]3)c(O)c(O)cc2c1O`, the GI50 with HT29 colon was 0.0217 µM; in the test with KM12 colon it was 0.017 µM; in the test with NCI-H522 lung it was 0.0449 µM; in the test on MDA-MB-435 it was 0.0248 µM; in the test with U251 CNS, 0.0174 µM; with OVCAR-5 ovarian, 0.0852 µM. For the same compound, the values for the GI50 with OVCAR-4 ovarian, in the test on UO-31 renal and in the test on ACHN renal were 0.0384 µM, 0.042 µM and 0.0292 µM, respectively. The TGI is above 24.4 µM in the test on HT29 colon; 0.775 µM in the test on KM12 colon; 0.878 µM in the test on NCI-H522 lung; 18.3 µM in the test with MDA-MB-435; above 20.3 µM in the test on OVCAR-5 ovarian; 16.8 µM in the test on OVCAR-4 ovarian. Moreover, the TGI in the test on UO-31 renal worked out at 0.218 µM; in the test with ACHN renal, 0.697 µM.
